Consider 13 compounds from patent US10004732B2 (Novartis AG, priority 2014, dated 2018).

For data set [1], the target named is T1, PI 3-kinase alpha (Homo sapiens, UniProt P42336). The experiment in a line: Kinase Glo Luminescent Kinase Assay (Kglo), assay A. The conditions noted are these: read-out: Assay A PI3Kα IC50. It counts as biochemical. For orientation: Kinase-Glo measures the ATP left after a reaction by luminescence.
Target sequence in this assay (P42336 whole entry): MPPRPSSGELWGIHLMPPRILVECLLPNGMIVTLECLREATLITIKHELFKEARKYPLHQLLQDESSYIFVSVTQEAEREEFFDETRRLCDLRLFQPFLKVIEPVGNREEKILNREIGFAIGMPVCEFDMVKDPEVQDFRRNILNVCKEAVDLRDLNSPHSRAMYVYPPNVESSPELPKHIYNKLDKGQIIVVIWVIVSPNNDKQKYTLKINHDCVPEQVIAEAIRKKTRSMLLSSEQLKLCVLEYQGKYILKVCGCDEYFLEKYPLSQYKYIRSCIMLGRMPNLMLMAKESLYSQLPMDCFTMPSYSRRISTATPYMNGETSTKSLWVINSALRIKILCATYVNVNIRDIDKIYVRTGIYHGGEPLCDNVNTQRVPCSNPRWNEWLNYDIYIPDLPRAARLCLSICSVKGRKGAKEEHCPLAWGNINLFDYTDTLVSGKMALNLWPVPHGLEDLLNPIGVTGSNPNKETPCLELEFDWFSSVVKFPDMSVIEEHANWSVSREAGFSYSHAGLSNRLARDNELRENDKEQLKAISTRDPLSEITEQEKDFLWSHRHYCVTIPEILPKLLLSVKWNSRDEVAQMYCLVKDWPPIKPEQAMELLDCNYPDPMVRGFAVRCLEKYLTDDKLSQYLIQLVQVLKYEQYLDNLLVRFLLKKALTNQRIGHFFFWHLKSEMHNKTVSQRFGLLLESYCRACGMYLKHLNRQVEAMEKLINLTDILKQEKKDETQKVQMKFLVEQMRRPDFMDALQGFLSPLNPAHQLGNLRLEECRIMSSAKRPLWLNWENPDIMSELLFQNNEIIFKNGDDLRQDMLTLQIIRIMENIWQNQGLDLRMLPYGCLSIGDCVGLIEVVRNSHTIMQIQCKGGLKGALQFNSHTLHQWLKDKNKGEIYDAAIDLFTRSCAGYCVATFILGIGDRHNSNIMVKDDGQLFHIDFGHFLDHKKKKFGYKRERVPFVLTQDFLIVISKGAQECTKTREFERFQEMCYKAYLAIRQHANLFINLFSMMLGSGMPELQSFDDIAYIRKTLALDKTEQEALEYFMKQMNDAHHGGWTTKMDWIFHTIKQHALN
For data set [2], the target named is T2, PI 3-kinase beta (Homo sapiens, UniProt P42338). The experiment in a line: Kinase Glo Luminescent Kinase Assay (Kglo), assay B. It counts as biochemical. The conditions noted are these: read-out: Assay B PI3Kβ IC50.
Target sequence in this assay (P42338 whole entry): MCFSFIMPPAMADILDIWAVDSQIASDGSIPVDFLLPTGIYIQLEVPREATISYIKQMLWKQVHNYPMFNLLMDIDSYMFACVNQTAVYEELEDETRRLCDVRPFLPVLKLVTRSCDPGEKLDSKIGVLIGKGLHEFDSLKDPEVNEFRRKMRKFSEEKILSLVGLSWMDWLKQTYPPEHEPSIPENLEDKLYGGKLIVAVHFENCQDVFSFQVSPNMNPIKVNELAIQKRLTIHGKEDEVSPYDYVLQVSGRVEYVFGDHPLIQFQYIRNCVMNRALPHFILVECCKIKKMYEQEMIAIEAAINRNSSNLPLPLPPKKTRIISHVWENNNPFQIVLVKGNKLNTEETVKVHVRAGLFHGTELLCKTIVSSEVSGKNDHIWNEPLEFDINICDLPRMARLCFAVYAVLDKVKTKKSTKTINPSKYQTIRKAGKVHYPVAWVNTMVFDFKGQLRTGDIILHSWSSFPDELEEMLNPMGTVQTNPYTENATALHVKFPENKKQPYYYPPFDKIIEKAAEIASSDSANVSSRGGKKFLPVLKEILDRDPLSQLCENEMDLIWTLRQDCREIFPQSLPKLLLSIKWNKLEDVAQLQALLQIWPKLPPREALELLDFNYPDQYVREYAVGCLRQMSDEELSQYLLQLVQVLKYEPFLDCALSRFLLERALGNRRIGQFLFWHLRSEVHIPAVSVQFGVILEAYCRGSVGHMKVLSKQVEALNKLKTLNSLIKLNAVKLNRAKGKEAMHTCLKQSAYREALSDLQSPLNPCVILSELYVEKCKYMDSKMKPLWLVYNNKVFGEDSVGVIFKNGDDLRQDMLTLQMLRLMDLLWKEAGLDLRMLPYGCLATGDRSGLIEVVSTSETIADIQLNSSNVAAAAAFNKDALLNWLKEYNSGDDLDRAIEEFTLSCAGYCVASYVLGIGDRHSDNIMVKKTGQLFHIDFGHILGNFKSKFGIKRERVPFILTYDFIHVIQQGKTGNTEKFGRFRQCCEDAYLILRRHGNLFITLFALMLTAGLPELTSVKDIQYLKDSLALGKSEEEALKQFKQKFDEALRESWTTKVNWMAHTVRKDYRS
Target sequence in this assay (P27986 461-568 partner): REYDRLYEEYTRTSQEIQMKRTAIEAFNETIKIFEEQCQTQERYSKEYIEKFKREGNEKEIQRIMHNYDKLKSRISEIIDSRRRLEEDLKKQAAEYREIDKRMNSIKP
The target in data set [3] is Vps34 (Homo sapiens, UniProt Q8NEB9). In words: Kinase Glo Luminescent Kinase Assay (Kglo), assay C. It counts as biochemical. The conditions noted are these: read-out: Assay C VPS34 IC50.
Vps34, sequence (Q8NEB9 whole entry, species assumed): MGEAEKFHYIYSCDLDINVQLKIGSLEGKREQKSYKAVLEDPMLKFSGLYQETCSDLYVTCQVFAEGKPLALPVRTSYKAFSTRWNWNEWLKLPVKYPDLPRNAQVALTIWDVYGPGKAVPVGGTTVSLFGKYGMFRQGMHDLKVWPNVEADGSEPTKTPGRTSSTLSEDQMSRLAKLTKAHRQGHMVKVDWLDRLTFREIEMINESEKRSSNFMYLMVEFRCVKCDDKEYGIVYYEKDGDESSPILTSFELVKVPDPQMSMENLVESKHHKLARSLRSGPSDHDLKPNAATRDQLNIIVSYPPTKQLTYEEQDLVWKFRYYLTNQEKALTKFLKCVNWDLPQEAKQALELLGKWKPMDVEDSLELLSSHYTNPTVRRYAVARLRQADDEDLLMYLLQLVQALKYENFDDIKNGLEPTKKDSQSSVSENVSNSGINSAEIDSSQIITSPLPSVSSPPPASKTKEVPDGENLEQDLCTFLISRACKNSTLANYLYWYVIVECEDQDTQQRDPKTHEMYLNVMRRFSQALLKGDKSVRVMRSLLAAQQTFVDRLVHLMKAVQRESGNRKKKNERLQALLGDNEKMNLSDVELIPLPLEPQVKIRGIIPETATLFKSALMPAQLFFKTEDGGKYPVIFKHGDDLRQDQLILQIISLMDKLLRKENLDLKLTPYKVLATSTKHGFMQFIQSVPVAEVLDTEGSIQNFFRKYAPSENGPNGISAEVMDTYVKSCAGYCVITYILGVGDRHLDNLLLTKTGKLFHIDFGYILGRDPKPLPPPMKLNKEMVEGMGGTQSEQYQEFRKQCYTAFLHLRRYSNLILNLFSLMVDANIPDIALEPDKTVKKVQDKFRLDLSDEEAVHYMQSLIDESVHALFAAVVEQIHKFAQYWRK
Protocol: Kinase Glo Luminescent Kinase Assay (Kglo) for Pb 3-Kinase Alpha (A), Pb 3-Kinase Beta (B), Vps34 (C), Pb 4-Kinase Beta (D)
The Kinase Glo Luminescent Kinase Assay (Promega, Madison/Wis., USA) is a homogeneous HTS method of measuring kinase activity by quantifying the amount of ATP remaining in solution following a kinase reaction.
L-α-phosphatidylinositol (PI), provided as 10 mg/ml solution in methanol, was transferred into a glass tube and dried under a nitrogen beam. It was then resuspended in 3% OctylGlucoside (1-0-n-octyl-beta-D-glucopyranoside) by vortexing and stored at 4° C. 5 μL of a mix of PI/OctylGlucoside with the PI 3-kinase alpha and PI 3-kinase beta subtypes, or Vps34 or PI 4-kinase beta were added. Kinase reactions were started by the addition of 5 μl of an ATP-mix containing in a final volume 10 μL 10 mM TRIS-HCl pH 7.5, 3 mM MgCl2, 50 mM NaCl, 0.05% CHAPS, 1 mM DTT and 1 μM ATP at room temperature.
All fits were performed with the program XLfit4 (ID Business Solutions, Guildford, UK).
The target of data set [4] is PI 4-kinase beta (Homo sapiens, UniProt Q9UBF8). In words: Kinase Glo Luminescent Kinase Assay (Kglo), assay D. It counts as biochemical. The conditions noted are these: read-out: Assay D PI4Kβ IC50.
PI 4-kinase beta, sequence (Q9UBF8 whole entry): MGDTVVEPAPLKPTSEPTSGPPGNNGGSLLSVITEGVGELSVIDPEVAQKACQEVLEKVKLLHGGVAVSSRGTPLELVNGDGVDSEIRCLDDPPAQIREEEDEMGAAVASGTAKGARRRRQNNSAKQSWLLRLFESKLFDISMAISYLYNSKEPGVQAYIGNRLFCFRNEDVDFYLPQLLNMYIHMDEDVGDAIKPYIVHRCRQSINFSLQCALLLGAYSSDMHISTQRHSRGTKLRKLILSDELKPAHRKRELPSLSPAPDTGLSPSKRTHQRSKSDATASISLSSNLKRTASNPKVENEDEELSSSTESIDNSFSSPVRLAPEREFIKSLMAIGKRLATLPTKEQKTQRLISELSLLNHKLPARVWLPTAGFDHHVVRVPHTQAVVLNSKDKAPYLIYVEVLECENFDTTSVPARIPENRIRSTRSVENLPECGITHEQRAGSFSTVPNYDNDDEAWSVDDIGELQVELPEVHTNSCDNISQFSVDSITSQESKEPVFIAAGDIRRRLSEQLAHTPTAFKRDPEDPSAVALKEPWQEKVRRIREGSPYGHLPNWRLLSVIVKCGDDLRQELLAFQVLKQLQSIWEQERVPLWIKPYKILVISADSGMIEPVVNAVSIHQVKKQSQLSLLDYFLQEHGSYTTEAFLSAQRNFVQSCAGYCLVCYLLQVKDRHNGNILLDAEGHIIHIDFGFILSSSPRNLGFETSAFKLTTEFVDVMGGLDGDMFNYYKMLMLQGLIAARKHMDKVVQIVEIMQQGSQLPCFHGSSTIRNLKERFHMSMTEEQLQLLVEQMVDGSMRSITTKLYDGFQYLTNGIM
The target in data set [5] is T3, PI 3-kinase gamma (Homo sapiens, UniProt P48736). In words: TR-FRET Adapta assay, assay E. It counts as biochemical. The following applies: read-out: Assay E PI3Kγ IC50. (In general: In TR-FRET formats the signal depends on donor and acceptor labels being close together.)
Data set [6] concerns the target T1, PI 3-kinase alpha. The experiment in a line: Cellular assay H1, p-Akt (S473) in Rat-1 cells, Surefire format. The conditions noted are these: non-asterisked data: version H1 (Surefire format), Rat-1 cells; read-out: Assay H PI3Kα IC50. It counts as cell-based.
Target sequence in this assay (P42336 whole entry): as the sequence (P42336 whole entry) above
Target sequence in this assay (Q63787 whole entry partner): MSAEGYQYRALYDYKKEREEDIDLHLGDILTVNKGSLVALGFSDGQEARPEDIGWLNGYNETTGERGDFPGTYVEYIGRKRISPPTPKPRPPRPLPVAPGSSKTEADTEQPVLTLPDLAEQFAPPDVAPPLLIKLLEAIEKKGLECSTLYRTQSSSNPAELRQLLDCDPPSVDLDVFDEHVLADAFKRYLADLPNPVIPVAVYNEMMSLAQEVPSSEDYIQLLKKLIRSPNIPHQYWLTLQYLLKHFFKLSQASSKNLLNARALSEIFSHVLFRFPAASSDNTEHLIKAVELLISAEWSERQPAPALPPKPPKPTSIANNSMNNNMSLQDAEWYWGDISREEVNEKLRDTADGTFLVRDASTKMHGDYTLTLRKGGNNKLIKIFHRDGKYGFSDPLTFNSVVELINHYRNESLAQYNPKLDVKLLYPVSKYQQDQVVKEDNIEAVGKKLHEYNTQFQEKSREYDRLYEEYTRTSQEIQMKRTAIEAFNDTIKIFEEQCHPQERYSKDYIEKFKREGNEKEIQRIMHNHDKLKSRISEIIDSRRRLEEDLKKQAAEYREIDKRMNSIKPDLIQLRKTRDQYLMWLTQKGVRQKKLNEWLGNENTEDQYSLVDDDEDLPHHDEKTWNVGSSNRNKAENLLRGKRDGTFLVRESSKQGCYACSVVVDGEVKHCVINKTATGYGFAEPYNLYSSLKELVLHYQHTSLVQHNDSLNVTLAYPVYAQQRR
Data set [7] has as its target T2, PI 3-kinase beta. In words: Cellular assay I1, p-Akt (S473) in Rat-1 cells, Surefire format. It counts as cell-based. The conditions noted are these: non-asterisked data: version I1 (Surefire format), Rat-1 cells; read-out: Assay I PI3Kβ IC50.
Target sequence in this assay (P42338 whole entry): as the sequence (P42338 whole entry) above
Target sequence in this assay (Q63787 whole entry partner): as the sequence (Q63787 whole entry partner) above
For data set [8], the target named is T4, PI 3-kinase delta (Homo sapiens, UniProt O00329). The experiment in a line: Cellular assay J1, p-Akt (S473) in Rat-1 cells, Surefire format. The following applies: non-asterisked data: version J1 (Surefire format), Rat-1 cells; read-out: Assay J PI3Kδ IC50. It counts as cell-based.
For data set [9], the target named is T3, PI 3-kinase gamma. The experiment in a line: Cellular U937 AKT assay K1 (MSD). It counts as cell-based. The following applies: U937 cells, K1 format; read-out: Assay K1 PI3Kγ IC50.
Data set [10] deals with T4, PI 3-kinase delta. In words: TR-FRET Adapta assay, assay F. The following applies: read-out: Assay F PI3Kδ IC50.
Data set [11] can be described thus: Microsomal clearance assay (M). The conditions noted are these: intrinsic clearance in rat liver microsomes. On the technique in general: Liver microsomes are vesicles of endoplasmic reticulum, rich in cytochrome P450 enzymes.
Protocol: The experiments were performed in 96-well glass plates at 37° C. on an automated Tecan EVO platform. Test compounds at a concentration of 10 mM in pure DMSO were diluted 1:1000 in water to 10 μM. […] Reactions were initiated by the addition of 150 μL of a cofactor solution containing 2 mM NADPH.
Data set [12] concerns the target mTOR (Homo sapiens, UniProt P42345). In words: Lanthascreen kinase binding assay, assay G. The following applies: read-out: Assay G mTOR IC50.
Protocol: Lanthascreen™ Kinase Binding Assay for mTOR (G)
Binding of an inhibitor to the kinase competes for binding with the tracer, resulting in a loss of FRET.
50 nL of compound dilutions were dispensed onto white 384-well small volume polystyrene plate.

Usually IC50 stands for the point on the concentration scale where inhibition reaches its midpoint.

Molecules are shown by their SMILES. Counter-ions that a name gives are not always drawn.

`Cc1ncc(-c2nc(-c3cc(S(=O)(=O)NC4CC(O)C4)ccc3C)cnc2N)s1` (mixture of isomers) [Example 43, 3-(5-Amino-6-(2-methylthiazol-5-yl)pyrazin-2-yl)-N-(3-hydroxycyclobutyl)-4-methylbenzenesulfonamide]: the IC50 amounted to 50 nM in data set [1]; 200 nM in [2]; 900 nM in [3]; 1400 nM in data set [4]; 6 nM in data set [5]; 1390 nM in [6]. Also, the IC50 is more than 10000 nM in data set [7], 1190 nM in data set [8], 15 nM in data set [9] and 220 nM in data set [10]. In addition, the “Assay M RLM CI(int)” value in data set [11] is 55 µL/min/mg.
Take `Cc1ccc(S(=O)(=O)NCCC(O)C(F)(F)F)cc1-c1cnc(N)c(-c2cnn(C)c2)n1` (centres unmarked) [Example 51, 3-(5-Amino-6-(1-methyl-1H-pyrazol-4-yl)pyrazin-2-yl)-4-methyl-N-(4,4,4-trifluoro-3-hydroxybutyl)benzenesulfonamide]: the IC50 is 370 nM in [1]; 4190 nM in [2]; 7150 nM in data set [3]; more than 9100 nM in data set [4]; 42 nM in data set [5]; more than 9100 nM in [12]. Besides, the IC50 came out at 6170 nM in data set [6]; 6600 nM in data set [7]; 3950 nM in data set [8]; 68 nM in data set [9]; 490 nM in data set [10]. Also, the “Assay M RLM CI(int)” value in data set [11] was determined as 55 µL/min/mg.
Turning to `Cc1ccc(S(=O)(=O)N[C@H]2CC[C@H](O)CC2)cc1-c1cnc(N)c(-c2ccnc(F)c2)n1` [Example 60, Trans-3-(5-Amino-6-(2-fluoropyridin-4-yl)pyrazin-2-yl)-N-(-4-hydroxycyclohexyl)-4-methylbenzenesulfonamide], the 50% inhibitory concentration (IC50) was 110 nM in data set [1]; 4570 nM in data set [2]; more than 9100 nM in data set [3]; 3630 nM in data set [4]; 40 nM in [5]; 8350 nM in data set [12]. For the same compound, the IC50 turned out to be 1540 nM in [6]; 3080 nM in data set [7]; 1300 nM in data set [8]; 93 nM in data set [9]; 220 nM in data set [10]. Moreover, the “Assay M RLM CI(int)” value in data set [11] came out at 24 µL/min/mg.
`Cc1ccc(S(=O)(=O)NC[C@H]2CCCN2)cc1-c1cnc(N)c(-c2cn(C)nc2C)n1` [Example 106, (R)-3-(5-Amino-6-(1,3-dimethyl-1H-pyrazol-4-yl)pyrazin-2-yl)-4-methyl-N-(pyrrolidin-2-ylmethyl)benzenesulfonamide hydrochloride]: the 50% inhibitory concentration (IC50) was 100 nM in data set [1]; 750 nM in data set [2]; more than 10000 nM in [3]; 5600 nM in data set [4]; 25 nM in [5]; more than 10000 nM in data set [6]. The IC50 is more than 10000 nM in data set [7], more than 10000 nM in data set [8], 2280 nM in data set [9] and 140 nM in data set [10]. For the same compound, the “Assay M RLM CI(int)” value in data set [11] stood at 29 µL/min/mg.
Consider `Cc1ccc(S(=O)(=O)NOCCN(C)C)cc1-c1cnc(N)c(-n2cncn2)n1` [Example 112.2, 3-(5-Amino-6-(1H-1,2,4-triazol-1-yl)pyrazin-2-yl)-N-(2-(dimethylamino)ethoxy)-4-methylbenzenesulfonamide], for which the IC50 was 860 nM in data set [1]; 1300 nM in data set [2]; more than 10000 nM in data set [3]; 5400 nM in data set [4]; 104 nM in [5]; more than 10000 nM in data set [12]. Also, the IC50 in data set [7] is more than 10000 nM; in data set [8], more than 10000 nM; in data set [9] it was 137 nM; in data set [10], 1200 nM.
Take `Cc1ccc(S(=O)(=O)NCCC(C)(C)O)cc1-c1cnc(N)c(-c2cccnc2Cl)n1` [Example 119.6]: the IC50 is 820 nM in data set [1]; more than 9100 nM in data set [2]; 7990 nM in data set [3]; 7700 nM in [4]; 161 nM in data set [5]; 5610 nM in data set [12]. For the same compound, the IC50 in data set [6] is 4070 nM; in data set [7], 1720 nM; in data set [8], 2880 nM; in data set [9], 860 nM; in [10], 380 nM.
Take `Cc1csc(-c2nc(-c3cc(S(=O)(=O)NCCC(C)(C)O)ccc3C)cnc2N)c1` [Example 119.43]: the IC50 was 250 nM in data set [1]; 1780 nM in [2]; more than 9100 nM in [3]; more than 9100 nM in data set [4]; 54 nM in data set [5]; 3370 nM in data set [12]. Also, the IC50 stood at 60 nM in data set [9] and 100 nM in data set [10]. The “Assay M RLM CI(int)” value in data set [11] was 136 µL/min/mg.
In the case of `Cc1ccc(S(=O)(=O)NCCC(C)(C)O)cc1-c1cnc(N)c(-c2cccs2)n1` [Example 119.45], the IC50 in [1] is 150 nM; in data set [2], 3600 nM; in data set [3] it was more than 9100 nM; in data set [4] it was 2460 nM; in data set [5], 12 nM; in data set [12], 8690 nM. The IC50 in data set [9] came to 85 nM; in [10], 100 nM. Besides, the “Assay M RLM CI(int)” value in [11] is 188 µL/min/mg.
Turning to `Cc1ccc(S(=O)(=O)NCC2(CO)CCCC2)cc1-c1cnc(N)c(-n2cncn2)n1` [Example 127.25], the IC50 in data set [1] is 130 nM; in data set [2] it was 650 nM; in data set [3], more than 10000 nM; in [4], 4400 nM; in data set [5], 31 nM; in [12], 3300 nM. For the same compound, the IC50 came out at 66 nM in data set [9] and 340 nM in data set [10]. In [11], the “Assay M RLM CI(int)” value worked out at 493 µL/min/mg.
Turning to `Cc1ccc(S(=O)(=O)NCC2COCCN2C)cc1-c1cnc(N)c(-c2cn(C)nc2C)n1` (centres unmarked) [Example 128.2, 3-(5-Amino-6-(1,3-dimethyl-1H-pyrazol-4-yl)pyrazin-2-yl)-4-methyl-N-((4-methylmorpholin-3-yl)methyl)benzenesulfonamide], the IC50 in data set [1] is 270 nM; in data set [3], more than 10000 nM; in data set [4] it was more than 10000 nM; in data set [5], 49 nM; in [6] it was 1910 nM; in data set [8], 1570 nM. Moreover, the IC50 in [9] was 90 nM; in data set [10] it was 450 nM. Also, the “Assay M RLM CI(int)” value in data set [11] was determined as 27 µL/min/mg.
For the compound `Cc1cc(-c2nc(-c3cc(S(=O)(=O)NCCC(C)(O)C(F)(F)F)ccc3C)cnc2N)ccn1` (centres unmarked) [Example 129.13, 3-(5-amino-6-(2-methylpyridin-4-yl)pyrazin-2-yl)-4-methyl-N-(4,4,4-trifluoro-3-hydroxy-3-methylbutyl)benzenesulfonamide], the IC50 in [1] was 300 nM; in data set [2], more than 9100 nM; in [3] it was more than 9100 nM; in data set [4], more than 9100 nM; in [5], 28 nM; in [12], more than 9100 nM. Besides, the IC50 is more than 10000 nM in [7], 5860 nM in [8], 144 nM in data set [9] and 260 nM in data set [10]. Further, the “Assay M RLM CI(int)” value in data set [11] was determined as 170 µL/min/mg.
`Cc1ccc(S(=O)(=O)NCC2COC2)cc1-c1cnc(N)c(-n2cncn2)n1` [Example 131, 3-(5-Amino-6-(1H-1,2,4-triazol-1-yl)pyrazin-2-yl)-4-methyl-N-(oxetan-3-ylmethyl)benzenesulfonamide]: the IC50 stood at 370 nM in [1]; 2450 nM in data set [2]; 4300 nM in data set [3]; 4950 nM in data set [4]; 42 nM in data set [5]; 3700 nM in data set [12]. The IC50 is 493 nM in data set [9] and 760 nM in data set [10]. In data set [11], the “Assay M RLM CI(int)” value worked out at 42 µL/min/mg.
Consider `CCc1noc(-c2nc(-c3cc(S(=O)(=O)N4CCC(CO)CC4)ccc3C)cnc2N)n1` [Example 141, (1-((3-(5-Amino-6-(3-ethyl-1,2,4-oxadiazol-5-yl)pyrazin-2-yl)-4-methylphenyl)sulfonyl)piperidin-4-yl)methanol], for which the IC50 in data set [1] is 1770 nM; in data set [2], more than 9100 nM; in data set [3], more than 9100 nM; in data set [4], more than 9100 nM; in [5] it was 54 nM; in data set [12], more than 9100 nM. The IC50 in [6] is 4700 nM; in data set [7], 8750 nM; in [8] it was 5310 nM; in data set [9] it was 947 nM; in data set [10] it was 340 nM.
